Our source for the IC50 values is ChEMBL document CHEMBL5726876, “NHE3-binding compounds and methods for inhibiting phosphate transport” (2019).

In general, IC50 refers to the point on the concentration scale where inhibition reaches its midpoint.

This test is described as follows: Cell-based activity under Prompt Conditions: Cell-based activity under Prompt Conditions. Rat or human NHE3-mediated Na+-dependent H+ antiport was measured using a modification of the pH sensitive dye method originally reported by Paradiso (PNAS USA. 81:7436-7440, 1984). Opossum kidney (OK) cells were obtained from the ATCC and propagated per their instructions. The rat NHE3 gene (GenBank M85300) or the human NHE3 gene (GenBank NM_004174.1) was introduced into OK cells via electroporation, and cells were seeded into 96 well plates and grown overnight. Medium was aspirated from the wells, cells were washed twice with NaCl-HEPES buffer (100 mM NaCl, 50 mM HEPES, 10 mM glucose, 5 mM KCl, 2 mM CaCl2, 1 mM MgCl2, pH 7.4), then incubated for 30 min at room temperature with NH4Cl-HEPES buffer (20 mM NH4Cl, 80 mM NaCl, 50 mM HEPES, 5 mM KCl, 2 mM CaCl2, 1 mM MgCl2, pH 7.4) containing 5 μM bis(acetoxymethyl) 3,3′-(3′,6′-bis(acetoxymethoxy)-5-((acetoxymethoxy)carbonyl)-3-oxo-3H-spiro[isobenzofuran-1,9′-xanthene]-2′,7′-diyl)dipropanoate (BCECF-AM).Cells were washed twice with Ammonium free, Na+-free HEPES (100 mM choline, 50 mM HEPES, 10 mM glucose, 5 mM KCl, 2 mM CaCl2, 1 mM MgCl2, pH 7.4) and incubated in the same buffer for 10 minutes at room temperature to lower intracellular pH. […] Initial rates were plotted as the average 2 or more replicates, and pIC50 values were estimated using GraphPad Prism.

Turning to `CCC(=O)NC(CCC(=O)NCCOCCOCCOCCNS(=O)(=O)c1cccc([C@@H]2CN(C)Cc3c(Cl)cc(Cl)cc32)c1)(CCC(=O)NCCOCCOCCOCCNS(=O)(=O)c1cccc([C@@H]2CN(C)Cc3c(Cl)cc(Cl)cc32)c1)CCC(=O)NCCOCCOCCOCCNS(=O)(=O)c1cccc([C@@H]2CN(C)Cc3c(Cl)cc(Cl)cc32)c1`, the IC50 was 79.4 nM.
As for `CN1Cc2c(Cl)cc(Cl)cc2[C@H](c2cccc(S(=O)(=O)NCCOCCOCCOCCNC(=O)CC(CC(=O)NCCOCCOCCOCCNS(=O)(=O)c3cccc([C@@H]4CN(C)Cc5c(Cl)cc(Cl)cc54)c3)C(=O)NCCOCCOCCOCCNS(=O)(=O)c3cccc([C@@H]4CN(C)Cc5c(Cl)cc(Cl)cc54)c3)c2)C1`, the figure is 31.6 nM; as for `CCCCCCCCCCC(=O)NC(CCC(=O)NCCOCCOCCNS(=O)(=O)c1cccc([C@@H]2CN(C)Cc3c(Cl)cc(Cl)cc32)c1)(CCC(=O)NCCOCCOCCNS(=O)(=O)c1cccc([C@@H]2CN(C)Cc3c(Cl)cc(Cl)cc32)c1)CCC(=O)NCCOCCOCCNS(=O)(=O)c1cccc([C@@H]2CN(C)Cc3c(Cl)cc(Cl)cc32)c1`, below 10000 nM.
As for `CN1Cc2c(Cl)cc(Cl)cc2[C@H](c2cccc(S(=O)(=O)NCCOCCOCCNC(=O)N(C)CCCN(CCCN(C)C(=O)NCCOCCOCCNS(=O)(=O)c3cccc([C@@H]4CN(C)Cc5c(Cl)cc(Cl)cc54)c3)CCCN(C)C(=O)NCCOCCOCCNS(=O)(=O)c3cccc([C@@H]4CN(C)Cc5c(Cl)cc(Cl)cc54)c3)c2)C1`, the figure is 126 nM; as for `CN1Cc2c(Cl)cc(Cl)cc2[C@H](c2cccc(S(=O)(=O)NCCOCCOCCNC(=O)CCC(=O)NCCOCCOCCNS(=O)(=O)c3ccc(O[C@H]4c5ccccc5C[C@@H]4N4CCCCC4)cc3)c2)C1`, 31.6 nM.
Regarding `CN1Cc2c(Cl)cc(Cl)cc2[C@H](c2cccc(S(=O)(=O)NCCOCCOCCNC(=O)CN(CCOCCOCCN(CC(=O)NCCOCCOCCNS(=O)(=O)c3cccc([C@@H]4CN(C)Cc5c(Cl)cc(Cl)cc54)c3)CC(=O)NCCOCCOCCNS(=O)(=O)c3cccc([C@@H]4CN(C)Cc5c(Cl)cc(Cl)cc54)c3)CC(=O)NCCOCCOCCNS(=O)(=O)c3cccc([C@@H]4CN(C)Cc5c(Cl)cc(Cl)cc54)c3)c2)C1`, the IC50 is 1580 nM.
Next, `O=C(NCCCCNC(=O)NCCOCCOCCNS(=O)(=O)c1ccc(O[C@H]2c3cc(Cl)cc(Cl)c3C[C@@H]2N2CC[C@@H](O)C2)cc1)NCCOCCOCCNS(=O)(=O)c1ccc(O[C@H]2c3cc(Cl)cc(Cl)c3C[C@@H]2N2CC[C@@H](O)C2)cc1`: below 10000 nM; `O=C(NCCOCCOCCNS(=O)(=O)c1ccc(O[C@H]2c3ccccc3C[C@@H]2N2CCCCC2)cc1)c1ccc(C(=O)NCCOCCOCCNS(=O)(=O)c2ccc(O[C@H]3c4ccccc4C[C@@H]3N3CCCCC3)cc2)cc1`: 7.94 nM.
Take `CCCCCCCCCCC(=O)NCCOCCOCCOCCNS(=O)(=O)c1cccc([C@@H]2CN(C)Cc3c(Cl)cc(Cl)cc32)c1`: the IC50 was below 10000 nM.
On to `CN1Cc2c(Cl)cc(Cl)cc2[C@H](c2cccc(S(=O)(=O)NCCOCCOCCNC(=O)NCCCN(CCCNC(=O)NCCOCCOCCNS(=O)(=O)c3cccc([C@@H]4CN(C)Cc5c(Cl)cc(Cl)cc54)c3)CCCNC(=O)NCCOCCOCCNS(=O)(=O)c3cccc([C@@H]4CN(C)Cc5c(Cl)cc(Cl)cc54)c3)c2)C1`, for which the half-inhibitory concentration (IC50) was 562 nM.
As for `CN1Cc2c(Cl)cc(Cl)cc2[C@H](c2cccc(S(=O)(=O)NCCOCCOCCNC(=O)COCC(=O)NCCOCCOCCNS(=O)(=O)c3ccc(O[C@H]4c5ccccc5C[C@@H]4N4CCCCC4)cc3)c2)C1`, the figure is 25.1 nM.
Next, `CN1Cc2c(Cl)cc(Cl)cc2[C@H](c2cccc(S(=O)(=O)NCCOCCOCCOCCNC(=O)CCC(N)(CCC(=O)NCCOCCOCCOCCNS(=O)(=O)c3cccc([C@@H]4CN(C)Cc5c(Cl)cc(Cl)cc54)c3)CCC(=O)NCCOCCOCCOCCNS(=O)(=O)c3cccc([C@@H]4CN(C)Cc5c(Cl)cc(Cl)cc54)c3)c2)C1`: 63.1 nM.
Consider `CN1Cc2c(Cl)cc(Cl)cc2[C@H](c2cccc(S(=O)(=O)NCCOCCOCCNC(=O)NCCN(CCNC(=O)NCCOCCOCCNS(=O)(=O)c3cccc([C@@H]4CN(C)Cc5c(Cl)cc(Cl)cc54)c3)C(=O)NCCOCCOCCN)c2)C1`, for which the IC50 is 3.98 nM.
For the molecule `CN1Cc2c(Cl)cc(Cl)cc2[C@H](c2cccc(S(=O)(=O)NCCOCCOCCNC(=O)CC(O)(CC(=O)NCCOCCOCCNS(=O)(=O)c3cccc([C@@H]4CN(C)Cc5c(Cl)cc(Cl)cc54)c3)C(=O)NCCOCCOCCNS(=O)(=O)c3cccc([C@@H]4CN(C)Cc5c(Cl)cc(Cl)cc54)c3)c2)C1`, the half-maximal inhibitory concentration (IC50) was 1000 nM.
As for `CN1Cc2c(Cl)cc(Cl)cc2[C@H](c2cccc(S(=O)(=O)NCCOCCOCCNC(=O)NCCC[N+](C)(CCCNC(=O)NCCOCCOCCNS(=O)(=O)c3cccc([C@@H]4CN(C)Cc5c(Cl)cc(Cl)cc54)c3)CCCNC(=O)NCCOCCOCCNS(=O)(=O)c3cccc([C@@H]4CN(C)Cc5c(Cl)cc(Cl)cc54)c3)c2)C1`, the figure is 39.8 nM; as for `CN1Cc2c(Cl)cc(Cl)cc2[C@H](c2cccc(S(=O)(=O)NCCOCCOCCNC(=O)NCCN(CCNC(=O)NCCOCCOCCNS(=O)(=O)c3cccc([C@@H]4CN(C)Cc5c(Cl)cc(Cl)cc54)c3)C(=O)CCCCCCCCCCC(=O)N(CCNC(=O)NCCOCCOCCNS(=O)(=O)c3cccc([C@@H]4CN(C)Cc5c(Cl)cc(Cl)cc54)c3)CCNC(=O)NCCOCCOCCNS(=O)(=O)c3cccc([C@@H]4CN(C)Cc5c(Cl)cc(Cl)cc54)c3)c2)C1`, below 10000 nM.
In the case of `CN1Cc2c(Cl)cc(Cl)cc2[C@H](c2cccc(S(=O)(=O)NCCOCCOCCOCCNC(=O)c3ccc(-c4ccc(Cl)cc4)cc3)c2)C1`, the IC50 was below 10000 nM.
As for `C=CC(=O)NCCOCCOCCOCCNS(=O)(=O)c1cccc([C@@H]2CN(C)Cc3c(Cl)cc(Cl)cc32)c1`, the figure is 200 nM.
Turning to `CN1Cc2c(Cl)cc(Cl)cc2[C@H](c2cccc(S(=O)(=O)NCCOCCOCCNC(=O)CN(CCN(CC(=O)O)CC(=O)NCCOCCOCCNS(=O)(=O)c3cccc([C@@H]4CN(C)Cc5c(Cl)cc(Cl)cc54)c3)CC(=O)O)c2)C1`, the IC50 was 12.6 nM.
As for `CN1Cc2c(Cl)cc(Cl)cc2[C@H](c2cccc(S(=O)(=O)NCCOCCOCCNC(=O)CN(CCOCCOCCOCCNC(=O)c3ccc(-c4ccc(Cl)cc4)cc3)CC(=O)NCCOCCOCCNS(=O)(=O)c3cccc([C@@H]4CN(C)Cc5c(Cl)cc(Cl)cc54)c3)c2)C1`, the figure is 1260 nM; as for `CN1Cc2c(Cl)cc(Cl)cc2[C@H](c2cccc(S(=O)(=O)NCCOCCOCCNC(=O)CCN(CCC(=O)NCCOCCOCCNS(=O)(=O)c3cccc([C@@H]4CN(C)Cc5c(Cl)cc(Cl)cc54)c3)CCC(=O)NCCOCCOCCNS(=O)(=O)c3cccc([C@@H]4CN(C)Cc5c(Cl)cc(Cl)cc54)c3)c2)C1`, 3160 nM.
For `CN1Cc2c(Cl)cc(Cl)cc2[C@H](c2cccc(S(=O)(=O)NCCOCCOCCOCCNC(=O)CCC(CCC(=O)NCCOCCOCCOCCNS(=O)(=O)c3cccc([C@@H]4CN(C)Cc5c(Cl)cc(Cl)cc54)c3)(CCC(=O)NCCOCCOCCOCCNS(=O)(=O)c3cccc([C@@H]4CN(C)Cc5c(Cl)cc(Cl)cc54)c3)NC(=O)c3ccc(-c4ccc(Cl)cc4)cc3)c2)C1`, the IC50 is 5010 nM.
As for `O=C(NCCOCCOCCNS(=O)(=O)c1ccc(O[C@H]2c3ccccc3C[C@@H]2N2CCCCC2)cc1)c1cccc(C(=O)NCCOCCOCCNS(=O)(=O)c2ccc(O[C@H]3c4ccccc4C[C@@H]3N3CCCCC3)cc2)c1`, the figure is below 10000 nM.
Next, `O=C(NCCCCNC(=O)NCCOCCOCCNS(=O)(=O)c1ccc(O[C@H]2c3ccccc3C[C@@H]2N2CCCC2)cc1)NCCOCCOCCNS(=O)(=O)c1ccc(O[C@H]2c3ccccc3C[C@@H]2N2CCCC2)cc1`: 2.51 nM; `O=C(NCCOCCOCCNS(=O)(=O)c1ccc(O[C@H]2c3ccccc3C[C@@H]2N2CCCCC2)cc1)[C@H](O)[C@@H](O)C(=O)NCCOCCOCCNS(=O)(=O)c1ccc(O[C@H]2c3ccccc3C[C@@H]2N2CCCCC2)cc1`: 3.98 nM; `CCCCCCCCOCCOCCOCCOCCOCCOC(=O)NCCOCCOCCOCCNS(=O)(=O)c1cccc([C@@H]2CN(C)Cc3c(Cl)cc(Cl)cc32)c1`: 251 nM.
On to `CCC(=O)NCCOCCOCCOCCNS(=O)(=O)c1cccc([C@@H]2CN(C)Cc3c(Cl)cc(Cl)cc32)c1`, for which the IC50 was 200 nM.
Next, `CN1Cc2c(Cl)cc(Cl)cc2[C@H](c2cccc(S(=O)(=O)NCCOCCOCCNC(=O)CCC(N)(CCC(=O)NCCOCCOCCNS(=O)(=O)c3cccc([C@@H]4CN(C)Cc5c(Cl)cc(Cl)cc54)c3)CCC(=O)NCCOCCOCCNS(=O)(=O)c3cccc([C@@H]4CN(C)Cc5c(Cl)cc(Cl)cc54)c3)c2)C1`: 85.1 nM; `CN1Cc2c(Cl)cc(Cl)cc2[C@H](c2cccc(S(=O)(=O)N(C)CCOCCOCCNC(=O)NCCCN(CCCNC(=O)NCCOCCOCCN(C)S(=O)(=O)c3cccc([C@@H]4CN(C)Cc5c(Cl)cc(Cl)cc54)c3)CCCNC(=O)NCCOCCOCCN(C)S(=O)(=O)c3cccc([C@@H]4CN(C)Cc5c(Cl)cc(Cl)cc54)c3)c2)C1`: 100 nM; `CN1Cc2c(Cl)cc(Cl)cc2C(c2cccc(S(=O)(=O)NCCOCCOCCOCCNC(=O)CCN(CCC(=O)NCCOCCOCCOCCNS(=O)(=O)c3cccc([C@@H]4CN(C)Cc5c(Cl)cc(Cl)cc54)c3)CCC(=O)NCCOCCOCCOCCNS(=O)(=O)c3cccc([C@@H]4CN(C)Cc5c(Cl)cc(Cl)cc54)c3)c2)C1` (stereo partly drawn): 316 nM.
Next, `CCOCCOCCC(=O)N(CCNC(=O)NCCOCCOCCNS(=O)(=O)c1cccc([C@@H]2CN(C)Cc3c(Cl)cc(Cl)cc32)c1)CCNC(=O)NCCOCCOCCNS(=O)(=O)c1cccc([C@@H]2CN(C)Cc3c(Cl)cc(Cl)cc32)c1`: 158 nM; `CCCCCCCCNC(=O)N(CCNC(=O)NCCOCCOCCNS(=O)(=O)c1cccc([C@@H]2CN(C)Cc3c(Cl)cc(Cl)cc32)c1)CCNC(=O)NCCOCCOCCNS(=O)(=O)c1cccc([C@@H]2CN(C)Cc3c(Cl)cc(Cl)cc32)c1`: 1580 nM.
On to `CCOCCOCCOCCOCCOCCC(=O)N(CCNC(=O)NCCOCCOCCNS(=O)(=O)c1cccc([C@@H]2CN(C)Cc3c(Cl)cc(Cl)cc32)c1)CCNC(=O)NCCOCCOCCNS(=O)(=O)c1cccc([C@@H]2CN(C)Cc3c(Cl)cc(Cl)cc32)c1`, for which the IC50 was 251 nM.
